According to ChEMBL document CHEMBL1201862, “PubChem BioAssay data set” (2004):
Calls of active or inactive are those of the source.

What was measured:
cells [1] = format: functional, cell-based
[2] = molecular target: T1, Trace amine-associated receptor 1 (Homo sapiens, UniProt Q96RJ0); assay: Counterscreen for agonists of the human trace amine associated receptor 1 (hTAAR1): Fluorescence-based cell-based high throughput dose response assay to identify hTAAR1 agonist that also desensitize TAAR1 receptor response.; format: functional
T1 sequence (Q96RJ0 whole entry): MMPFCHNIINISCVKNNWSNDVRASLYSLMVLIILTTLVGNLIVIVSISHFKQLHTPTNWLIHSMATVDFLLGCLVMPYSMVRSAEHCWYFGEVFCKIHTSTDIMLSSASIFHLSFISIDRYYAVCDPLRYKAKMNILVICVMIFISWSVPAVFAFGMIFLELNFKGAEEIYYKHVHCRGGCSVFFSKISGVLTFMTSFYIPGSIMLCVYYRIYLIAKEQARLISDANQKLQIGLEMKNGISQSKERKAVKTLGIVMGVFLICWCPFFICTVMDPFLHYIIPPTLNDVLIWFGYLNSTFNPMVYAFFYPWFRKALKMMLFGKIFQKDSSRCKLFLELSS

cells [3] = format: functional, cell-based; remark: listed apart in the source
[4] = molecular target: T1, Trace amine-associated receptor 1; assay: Fluorescence-based cell-based high throughput dose response assay to identify agonists of the human trace amine associated receptor 1 (TAAR1).; format: functional
[5] = molecular target: Protein disulfide-isomerase (Homo sapiens, UniProt P07237); assay: PDI inhibitors, insulin turbidity readout, confirmation, biochemical, dry powder samples, set 2 (AID 652146)
Protein disulfide-isomerase, sequence (P07237 whole entry): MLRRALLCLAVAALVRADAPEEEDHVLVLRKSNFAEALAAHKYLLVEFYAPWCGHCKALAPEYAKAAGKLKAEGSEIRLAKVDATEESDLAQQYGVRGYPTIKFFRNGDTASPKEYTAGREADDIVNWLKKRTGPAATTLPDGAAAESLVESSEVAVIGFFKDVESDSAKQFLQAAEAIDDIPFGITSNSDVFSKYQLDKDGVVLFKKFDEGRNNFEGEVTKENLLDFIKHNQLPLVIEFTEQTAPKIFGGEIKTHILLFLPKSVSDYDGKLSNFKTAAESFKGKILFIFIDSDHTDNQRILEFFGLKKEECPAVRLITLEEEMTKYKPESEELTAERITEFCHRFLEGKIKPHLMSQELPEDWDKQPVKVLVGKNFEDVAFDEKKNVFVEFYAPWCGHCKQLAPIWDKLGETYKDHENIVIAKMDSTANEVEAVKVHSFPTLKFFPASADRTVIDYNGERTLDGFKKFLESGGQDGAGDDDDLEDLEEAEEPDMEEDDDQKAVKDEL

[6] = molecular target: Potassium channel subfamily K member 3 (Homo sapiens, UniProt O14649); assay: TASK1 (KCNK3) potassium channel inhibitors, SAR follow-up, CHO cells, FluxOR thallium flux (AID 652212); format: functional
Potassium channel subfamily K member 3 (Homo sapiens, UniProt O14649), sequence (O14649 whole entry): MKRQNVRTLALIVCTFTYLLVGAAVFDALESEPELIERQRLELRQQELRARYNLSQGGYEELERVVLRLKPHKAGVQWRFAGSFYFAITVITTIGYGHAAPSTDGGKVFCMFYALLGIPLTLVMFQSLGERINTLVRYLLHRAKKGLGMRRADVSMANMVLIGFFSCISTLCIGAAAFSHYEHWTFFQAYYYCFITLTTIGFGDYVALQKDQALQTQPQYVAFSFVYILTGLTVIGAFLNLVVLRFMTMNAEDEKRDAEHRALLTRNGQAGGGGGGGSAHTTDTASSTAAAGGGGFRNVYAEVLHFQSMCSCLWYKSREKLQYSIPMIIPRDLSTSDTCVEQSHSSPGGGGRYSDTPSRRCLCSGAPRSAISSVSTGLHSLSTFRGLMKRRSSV

[7] = molecular target: Potassium channel subfamily K member 9 (Homo sapiens, UniProt Q9NPC2); assay: TASK3 (KCNK9) channel inhibitors, thallium flux, SAR follow-up, selectivity assay for TASK1 inhibitor project, cell-based, FluxOR thallium flux, concentration-response (AID 652211); format: functional;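 also: potency is for inhibitors of the channel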
Potassium channel subfamily K member 9, sequence (Q9NPC2 whole entry, the tested form may be a part): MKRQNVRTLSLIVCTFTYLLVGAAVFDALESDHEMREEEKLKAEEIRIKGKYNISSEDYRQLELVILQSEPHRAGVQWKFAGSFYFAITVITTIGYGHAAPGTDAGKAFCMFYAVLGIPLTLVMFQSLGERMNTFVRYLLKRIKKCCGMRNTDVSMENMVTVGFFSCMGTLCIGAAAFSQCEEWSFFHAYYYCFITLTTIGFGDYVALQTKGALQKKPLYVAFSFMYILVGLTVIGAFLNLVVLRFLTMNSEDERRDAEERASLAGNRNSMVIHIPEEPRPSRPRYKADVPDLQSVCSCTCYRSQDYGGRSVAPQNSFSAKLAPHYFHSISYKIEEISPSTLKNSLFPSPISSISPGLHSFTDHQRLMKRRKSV

[8] = molecular target: Potassium channel subfamily K member 3 (Rattus norvegicus, UniProt O54912); assay: SAR analysis for the identification of selective inhibitors of the two-pore domain potassium channel TASK1(KCNK3):Automated Electrophysiology.; format: functional
Potassium channel subfamily K member 3 (Rattus norvegicus, UniProt O54912), sequence (O54912 whole entry, the tested form may be a part): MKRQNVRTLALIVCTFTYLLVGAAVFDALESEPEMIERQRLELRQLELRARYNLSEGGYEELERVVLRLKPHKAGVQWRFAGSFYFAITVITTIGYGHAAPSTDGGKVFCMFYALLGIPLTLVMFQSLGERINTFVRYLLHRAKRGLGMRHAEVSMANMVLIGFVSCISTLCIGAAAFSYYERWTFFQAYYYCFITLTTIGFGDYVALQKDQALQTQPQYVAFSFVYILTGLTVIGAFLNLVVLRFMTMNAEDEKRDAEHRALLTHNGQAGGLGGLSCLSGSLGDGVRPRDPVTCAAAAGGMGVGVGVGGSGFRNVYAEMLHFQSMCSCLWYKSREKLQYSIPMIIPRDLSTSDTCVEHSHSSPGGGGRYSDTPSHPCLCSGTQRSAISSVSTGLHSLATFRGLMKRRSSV

NS3 = NS3 (Hepatitis C virus, UniProt A3EZJ3); assay: HCV NS3 helicase inhibitor potency, dose response, biochemical, fluorescence polarization, ChemBridge library (AID 743264)
NS3, sequence (A3EZJ3 whole entry): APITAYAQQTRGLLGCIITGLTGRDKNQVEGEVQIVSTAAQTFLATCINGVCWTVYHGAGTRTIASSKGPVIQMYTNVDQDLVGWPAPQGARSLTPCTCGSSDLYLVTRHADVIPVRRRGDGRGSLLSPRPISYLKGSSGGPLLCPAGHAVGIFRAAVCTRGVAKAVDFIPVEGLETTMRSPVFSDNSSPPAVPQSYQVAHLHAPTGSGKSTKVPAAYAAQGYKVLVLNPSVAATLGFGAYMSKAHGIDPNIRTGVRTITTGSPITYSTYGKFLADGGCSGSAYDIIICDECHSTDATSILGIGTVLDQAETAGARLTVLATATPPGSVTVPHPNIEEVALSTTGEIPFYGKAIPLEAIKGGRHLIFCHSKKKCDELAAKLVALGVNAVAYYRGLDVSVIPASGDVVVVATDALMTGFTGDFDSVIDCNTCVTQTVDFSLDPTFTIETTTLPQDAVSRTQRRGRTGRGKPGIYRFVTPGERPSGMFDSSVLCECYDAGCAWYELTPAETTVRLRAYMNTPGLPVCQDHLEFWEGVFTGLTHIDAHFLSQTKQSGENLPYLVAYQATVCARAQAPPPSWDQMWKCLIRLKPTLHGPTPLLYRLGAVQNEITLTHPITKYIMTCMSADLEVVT

[9] = molecular target: Voltage-gated inwardly rectifying potassium channel KCNH2 (Homo sapiens, UniProt Q12809); assay: hERG channel inhibition in selectivity testing, SAR follow-up, selectivity assay for TASK1 inhibitor project, FluxOR thallium flux, concentration-response, CHO cells (AID 652194); format: functional, cell-based
Voltage-gated inwardly rectifying potassium channel KCNH2, sequence (Q12809 whole entry): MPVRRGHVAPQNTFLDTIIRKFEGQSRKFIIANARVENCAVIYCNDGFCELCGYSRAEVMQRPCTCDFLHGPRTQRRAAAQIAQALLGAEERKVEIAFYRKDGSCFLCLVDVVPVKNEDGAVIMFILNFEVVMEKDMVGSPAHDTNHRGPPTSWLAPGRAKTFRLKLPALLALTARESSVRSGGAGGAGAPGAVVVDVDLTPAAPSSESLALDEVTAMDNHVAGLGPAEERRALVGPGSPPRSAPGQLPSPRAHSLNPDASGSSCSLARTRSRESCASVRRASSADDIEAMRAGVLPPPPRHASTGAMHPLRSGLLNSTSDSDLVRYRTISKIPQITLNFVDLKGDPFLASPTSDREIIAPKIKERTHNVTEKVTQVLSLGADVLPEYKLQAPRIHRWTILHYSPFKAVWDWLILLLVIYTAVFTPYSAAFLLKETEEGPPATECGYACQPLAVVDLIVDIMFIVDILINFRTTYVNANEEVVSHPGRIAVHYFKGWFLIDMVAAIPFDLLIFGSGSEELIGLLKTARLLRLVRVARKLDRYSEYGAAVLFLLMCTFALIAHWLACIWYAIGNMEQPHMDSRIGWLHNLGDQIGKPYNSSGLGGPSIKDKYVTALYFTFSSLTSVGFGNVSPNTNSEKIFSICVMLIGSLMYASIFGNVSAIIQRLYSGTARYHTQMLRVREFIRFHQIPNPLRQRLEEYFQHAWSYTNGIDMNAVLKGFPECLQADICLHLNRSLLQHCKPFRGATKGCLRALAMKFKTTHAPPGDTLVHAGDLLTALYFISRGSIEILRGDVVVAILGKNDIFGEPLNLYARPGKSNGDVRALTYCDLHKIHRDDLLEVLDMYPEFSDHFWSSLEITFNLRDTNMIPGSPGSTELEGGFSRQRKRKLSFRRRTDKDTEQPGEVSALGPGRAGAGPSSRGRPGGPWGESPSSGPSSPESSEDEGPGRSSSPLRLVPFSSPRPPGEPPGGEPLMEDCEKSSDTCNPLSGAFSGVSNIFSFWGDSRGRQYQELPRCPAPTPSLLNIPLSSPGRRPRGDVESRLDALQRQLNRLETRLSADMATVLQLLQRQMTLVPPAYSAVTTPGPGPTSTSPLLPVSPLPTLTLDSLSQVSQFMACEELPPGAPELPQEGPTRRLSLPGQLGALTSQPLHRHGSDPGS

Streptococcus = assay: Group A Streptococcus viability loss, dose response, counter-screen for streptokinase expression inhibitor project, luminescence, BacTiterGlo (AID 1915); format: functional, organism-based;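 also: potency for reduction of bacterial viability or growth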
Streptokinase A = molecular target: T2, Streptokinase A (Streptococcus pyogenes serotype M1, UniProt P10520); assay: S. pyogenes streptokinase expression inhibitors, potency, dose response, plasminogen activation absorbance, OD405 (AID 1914); format: functional, Streptococcus pyogenes M1 GAS;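 also: secreted streptokinase activity via plasminogen activation per viability signal from cell pellet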
T2 sequence (P10520 whole entry): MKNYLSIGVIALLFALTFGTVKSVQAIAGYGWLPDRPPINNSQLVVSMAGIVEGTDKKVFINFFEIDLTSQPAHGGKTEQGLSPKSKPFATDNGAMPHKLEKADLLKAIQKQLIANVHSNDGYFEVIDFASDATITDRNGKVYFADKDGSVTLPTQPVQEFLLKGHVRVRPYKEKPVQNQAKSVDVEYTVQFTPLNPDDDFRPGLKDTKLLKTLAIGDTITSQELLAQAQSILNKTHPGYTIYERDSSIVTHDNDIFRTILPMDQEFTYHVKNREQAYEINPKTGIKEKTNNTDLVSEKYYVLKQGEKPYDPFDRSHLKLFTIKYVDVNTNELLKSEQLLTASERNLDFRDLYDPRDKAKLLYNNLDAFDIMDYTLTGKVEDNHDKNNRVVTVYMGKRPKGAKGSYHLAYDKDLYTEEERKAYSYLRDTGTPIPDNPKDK

[10] = tested on: Streptococcus sp. 'group A'; assay: growth inhibition of control SK(-) GAS strain, dose response, counter-screen for streptokinase expression inhibitor project, luminescence, kanamycin, BacTiterGlo, confirmation (AID 1900); format: functional, organism-based
[11] = inhibitors of intracellular T. cruzi replication, confirmation, NIH3T3 host cells, beta-gal luminescence (AID 2044); format: functional, cell-based;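 also: intracellular parasites grown in NIH/3T3 mouse fibroblasts as host cells; luminescent beta-galactosidase reporter signal from transgenic T. cruzi replicating inside host cells; inhibitors lower the luminescence signal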
[12] = cytotoxicity toward NIH3T3 fibroblasts, dose response, counter-screen, cell-based, ATP luminescence, mouse fibroblasts (AID 2010); format: functional;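 also: cells exposed to compound for about 90 hours before reading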
[13] = HepG2 cell cytotoxicity, dose response, cytotoxicity control, ATP luminescence, cherry-pick, activator set 2 (AID 1053143); format: functional, cell-based

## CC(C)[C@H](NC(=O)CC1CCCC1)C(=O)N1CCC[C@H]1C(=O)NCCc1ccccc1Cl
Cells [1]
  EC50: > 29.9 µM (inactive)
[2]
  IC50: 4 µM (active)
Cells [3]
  IC50: > 29.9 µM (inactive)
[4]
  EC50: 2.01 µM (active)

## CCOC(=O)C1(CCOc2ccccc2)CCN(Cc2ccc(OC)c(Cl)c2)CC1
[5]
  AC50: > 30 µM (inactive)

## Cc1cccc(C(=O)Nc2cccc(NC(=O)c3ccccc3OC(F)(F)F)c2)c1
[6]
  IC50: 0.028 µM (active)
[7]
  IC50: 1.05 µM (active)
[8]
  IC50: 0.06 µM (active)

## Cc1ccc(N2C(=O)NC(=O)/C(=C\c3ccc(-c4ccc(Cl)c(C(=O)O)c4)o3)C2=O)cc1
NS3
  IC50: 133 µM (active)

## COc1ccccc1NC(=O)c1cccc(NC(=O)C2CCCC2)c1
[6]
  IC50: 0.238 µM (active)
[7]
  IC50: 1.55 µM (active)
[9]
  IC50: 43.5 µM (active)

## Cc1nn(-c2ccccc2)c(C)c1/C=N/Nc1nc2ccccc2[nH]1
Streptococcus
  EC50: > 150 µM (not active)
Streptokinase A
  EC50: > 150 µM (not active)
[10]
  EC50: 7.89 µM (active)
[11]
  EC50: 2.15 µM (active)
[12]
  EC50: > 60 µM (not active)
[13]
  AC50: 26 µM (active)
